System: mouse embryonic stem cells
Assay: MTT cell viability assay of tert-butyl hydroperoxide oxidative stress-induced cytotoxicity in mouse embryonic stem cells
Type: cell-based
Conditions: for viability at 0.1 µM / viability at 0.5 µM / viability at 1 µM: Mus musculus, Embryonic stem cell, read-out: Ave. Cell Viability (%)
Experimental: Oxidative stress and related free radical damage can be induced in cells, including stem cells, by exposing the cells to tert-butyl hydroperoxide in the incubation medium. Decomposition of the peroxide over a period of time leads to a steady generation of reactive oxygen species. This in turn triggers a cascade of free radical-mediated events that eventually leads to irreversible damage and ultimately cell death as the natural antioxidant defences are overwhelmed.
The extent of cytotoxicity induced by peroxide exposure can be quantified using a number of well-documented assays, including the MTT protocol. This is a colorometric assay that measures the reduction of MTT to formazan, a process that can only occur when cells are viable. Thus, by comparing the amount of formazan produced in control cells, against cells treated with a cytotoxic agent, such as tert-butyl hydroperoxide, the reduction in cell viability induced by the agent can be measured.
The assay can be further extended to determine the effectiveness of compounds to provide protection against cytotoxic agents. In the case of the novel antioxidants, the subject of this patent, this can be achieved by pre-incubation of the cells with the antioxidant agent prior to induction of oxidative stress by tert-butyl hydroperoxide. Thus a comparison of the amount of formazan produced by control cells against cells with the cytotoxic peroxide present, plus or minus pre-incubation with the novel antioxidant, can determine the extent by which the compound can retain cell viability.
A 96-well plate was seeded with approximately 20,000 mouse embryonic stem cells per well and left to grow at 37° C. (5% CO2) overnight. Antioxidants, denoted as Exp.1, Exp.2 and Exp.3, were dissolved in DMSO and added to the wells in triplicate 30 min before induction of oxidative stress with tert-butyl hydroperoxide. The resultant concentrations of the tested antioxidants in the wells were 0.1, 0.5 and 1 μM. Controls were also initiated using cell medium (DMEM^+)/DMSO. After the 30 min pre-incubation period, tert-butyl peroxide was added to the wells to provide a final concentration of 400 μM. The plated cells were returned to the incubator (37° C.) for 90 min. After this period, 20 μL of the MTT reagent solution was added to all of the wells. The plate was then further incubated for a further 3 hours. The supernatant was removed from the wells and 200 μl DMSO added to all wells to solubilise reduced MTT (formazan). The plate was protected from light and shaken for 10 min. The supernatant was removed from the wells and aliquoted into a new 96-well plate for the colorometric measurements. Absorbance was determined at 540 nm.
The average corrected absorbance. (0.737) for the DMEM^+ control (which contained no antioxidant compounds or tert-butyl hydroperoxide) represented the 100% viability benchmark. Comparison of the corrected absorbances in the various well treatment regimes relative to that of the DMEM^+ control enabled the resultant effects on cell viability to be calculated. tBHP=tert-butyl hydroperoxide.

## CC(C)(C)OO [tBHP, tert-butyl hydroperoxide, reference compound]
400 μM tBHP alone, no antioxidant, 90 min, relative to DMEM+ control = 100%
  Ave. Cell Viability (%): 37.0%
400 μM tBHP alone, no antioxidant, 90 min, relative to DMEM+ control = 100%, listed as tert-butyl hydroperoxide
  Ave. Cell Viability (%): 37%

## CCCCCCCCc1cc(=O)c(O)c(-c2cc(O)c(O)c(O)c2)o1 [Exp.3]
  viability at 0.1 µM: 34.4%
  viability at 0.5 µM: 55.5%
  viability at 1 µM: 70.4%

## CCCCCCCCCCc1ccc2c(=O)c(O)c(-c3cc(O)c(O)c(O)c3)oc2c1 [Exp.1]
  viability at 0.1 µM: 56.9%
  viability at 0.5 µM: 86.5%
  viability at 1 µM: 84.8%
mouse, 120 min, 1 μM
  Ave. Cell Viability (%): 107.4%

## CCCCCCCCCCCCc1cc(=O)c(O)c(-c2cc(O)c(O)c(O)c2)o1 [Exp.2]
  viability at 0.1 µM: 60.5%
  viability at 0.5 µM: 94.8%
  viability at 1 µM: 96.9%
mouse, 120 min, 1 μM
  Ave. Cell Viability (%): 104.1%

From patent publication US8188144B2, “In vitro preservation of living animal cells and compounds suitable for use in the preservation of living animal cells” (Antoxis Limited, priority 2007, dated 2012)
